Assay results published in patent US6969616B2 (Kaneka Corporation, priority 2000, dated 2005).

Tested on: enterotoxins
Format: binding, Staphylococcus aureus

Structure (SMILES): CCCCCCCCN [n-octylamine]
- adsorptive affinity for enterotoxins: phenomenal increase in the adsorptive affinity for enterotoxins
